The text below walks through data of patent publication US11339167B2, “Substituted piperidines as kinase inhibitors” (Daewoong Pharmaceutical Co., Ltd., priority 2017, dated 2022).

In one assay the target is human JAK3 (Homo sapiens (Human), UniProt P52333). The assay can be described thus: JAK3 kinase inhibitory activity, ADP Glo kinase assay. The assay is classed as biochemical. To be noted: recombinant purified human JAK3, ATP 5 uM, Poly(Glu4,Tyr1) peptide, 1 hour 30° C. As to the method:
JAK3 and BTK kinases inhibitory activities were measured for the compounds prepared in the Examples through in vitro analysis on the ADP Glow (Glo) platform.
Specifically, the inhibitory activities against JAK3 and BTK kinase were measured using a JAK3 kinase assay kit (Promega, V9441) and a BTK kinase assay kit (Promega, V9071) which were purchased from Promega. […] After incubation (30° C.) for 1 hour, equivalent volume (25 uL per reaction) of ADP Glo was added and incubated (30° C.) for 40 minutes at room temperature. Then, a kinase detection reagent (50 uL per reaction) was added and incubated (30° C.) for 30 minutes at room temperature. The kinase activity was measured by chemiluminescence according to the instructions of ADP Glow kinase assay kit, and the inhibitory activity of the compounds according to the present disclosure was calculated.
On the technique in general: ADP-Glo first removes unused ATP, then detects ADP through luciferase.

In the next assay the target is human BTK (Homo sapiens (Human), UniProt Q06187). Nature of the assay: BTK kinase inhibitory activity, ADP Glo kinase assay.
Setting [1] is: read-out: BTK IC50, recombinant purified human BTK, ATP 10 uM, Poly(Glu4,Tyr1) peptide, 1 hour 30° C.

Molecules are shown by their SMILES. Read-outs that look alike come from different tables or passages of the source.

Chain of human BTK (Q06187 whole entry): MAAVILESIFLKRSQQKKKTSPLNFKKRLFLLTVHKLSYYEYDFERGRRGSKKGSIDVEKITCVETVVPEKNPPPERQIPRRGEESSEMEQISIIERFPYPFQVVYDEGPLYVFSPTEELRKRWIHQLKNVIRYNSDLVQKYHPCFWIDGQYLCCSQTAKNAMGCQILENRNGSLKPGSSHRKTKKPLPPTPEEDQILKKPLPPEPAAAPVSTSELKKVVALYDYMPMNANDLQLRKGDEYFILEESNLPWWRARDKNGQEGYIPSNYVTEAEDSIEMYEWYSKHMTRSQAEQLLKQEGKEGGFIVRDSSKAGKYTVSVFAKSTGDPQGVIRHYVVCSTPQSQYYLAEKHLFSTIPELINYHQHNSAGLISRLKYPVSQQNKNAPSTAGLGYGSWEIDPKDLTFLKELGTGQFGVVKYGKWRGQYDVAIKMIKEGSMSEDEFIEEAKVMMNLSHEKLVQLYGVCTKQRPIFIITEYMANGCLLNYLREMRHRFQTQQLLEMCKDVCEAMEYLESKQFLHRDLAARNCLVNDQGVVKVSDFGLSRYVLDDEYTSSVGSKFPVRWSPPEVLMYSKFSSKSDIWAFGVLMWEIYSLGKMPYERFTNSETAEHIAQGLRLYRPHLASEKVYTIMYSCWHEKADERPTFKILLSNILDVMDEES
Chain of human JAK3 (P52333 whole entry): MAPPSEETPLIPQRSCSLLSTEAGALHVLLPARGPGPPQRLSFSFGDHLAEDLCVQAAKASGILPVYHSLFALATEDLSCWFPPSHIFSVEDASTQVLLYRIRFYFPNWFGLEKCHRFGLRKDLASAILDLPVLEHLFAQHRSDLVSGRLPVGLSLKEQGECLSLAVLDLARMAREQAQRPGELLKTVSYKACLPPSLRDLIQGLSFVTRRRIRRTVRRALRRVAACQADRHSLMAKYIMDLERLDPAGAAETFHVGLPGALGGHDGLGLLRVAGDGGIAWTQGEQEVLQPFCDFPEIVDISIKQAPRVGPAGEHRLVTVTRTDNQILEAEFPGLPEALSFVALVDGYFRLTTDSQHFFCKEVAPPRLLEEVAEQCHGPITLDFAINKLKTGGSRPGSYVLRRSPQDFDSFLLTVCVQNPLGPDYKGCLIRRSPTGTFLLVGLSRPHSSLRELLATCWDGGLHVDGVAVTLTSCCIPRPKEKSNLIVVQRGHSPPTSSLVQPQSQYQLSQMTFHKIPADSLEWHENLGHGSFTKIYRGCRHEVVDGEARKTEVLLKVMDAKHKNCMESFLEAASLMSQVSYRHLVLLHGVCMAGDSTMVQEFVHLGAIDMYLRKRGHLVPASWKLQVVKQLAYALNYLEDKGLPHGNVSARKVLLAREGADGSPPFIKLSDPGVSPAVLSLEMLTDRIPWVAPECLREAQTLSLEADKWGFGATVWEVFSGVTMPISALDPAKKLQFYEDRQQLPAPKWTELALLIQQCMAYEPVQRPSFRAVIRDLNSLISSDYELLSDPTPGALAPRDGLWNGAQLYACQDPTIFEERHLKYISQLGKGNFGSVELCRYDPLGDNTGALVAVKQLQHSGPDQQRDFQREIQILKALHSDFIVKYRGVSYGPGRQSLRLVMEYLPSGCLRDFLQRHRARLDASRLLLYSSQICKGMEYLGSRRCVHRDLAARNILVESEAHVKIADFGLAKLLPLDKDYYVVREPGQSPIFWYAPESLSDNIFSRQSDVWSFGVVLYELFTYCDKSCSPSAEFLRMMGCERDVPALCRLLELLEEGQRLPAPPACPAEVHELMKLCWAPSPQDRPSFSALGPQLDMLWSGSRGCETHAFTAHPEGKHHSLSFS

As usually defined, the IC50 is the concentration needed to halve the response being measured. Take `C=CC(=O)N1CC[C@@H](F)[C@H](Oc2nc(Nc3cnn(CC(F)F)c3)nc3[nH]ccc23)C1` (racemic) [Example 2, 1-(trans-3-((2-((1-(2,2-difluoroethyl)-1H-pyrazol-4-yl)amino)-7H-pyrrolo[2,3-d]pyrimidin-4-yl)oxy)-4-fluoropiperidin-1-yl)prop-2-en-1-one]: the IC50 on human JAK3 is 0.3 nM; against human BTK it was 2.5 nM.

Turning to `C=CC(=O)N1CC[C@@H](F)[C@H](Oc2nc(Nc3cnn(C4CC4)c3)nc3[nH]cc(Cl)c23)C1` (racemic) [Example 10, 1-(trans-3-((5-chloro-2-((1-cyclopropyl-1H-pyrazol-4-yl)amino)-7H-pyrrolo[2,3-d]pyrimidin-4-yl)oxy)-4-fluoropiperidin-1-yl)prop-2-en-1-one], the half-maximal inhibitory concentration (IC50) came out at 0.4 nM on human JAK3 and 2.8 nM at human BTK.

For `C=CC(=O)N1CC[C@@H](F)[C@H](Oc2nc(Nc3cnn(CC)c3)nc3[nH]cc(C#N)c23)C1` (racemic) [Example 12, 4-((trans-1-acryloyl-4-fluoropiperidin-3-yl)oxy)-2-((1-ethyl-1H-pyrazol-4-yl)amino)-7H-pyrrolo[2,3-d]pyrimidine-5-carbonitrile], the values for the IC50 at human JAK3 and against human BTK were 0.2 nM and 1.3 nM, respectively.

As for `C=CC(=O)N1CC[C@@H](F)[C@H](Oc2nc(Nc3cnn(C4CC4)c3)nc3[nH]cc(C#N)c23)C1` (racemic) [Example 13, 4-((trans-1-acryloyl-4-fluoropiperidin-3-yl)oxy)-2-((1-cyclopropyl-1H-pyrazol-4-yl)amino)-7H-pyrrolo[2,3-d]pyrimidine-5-carbonitrile], the concentration for half-maximal inhibition (IC50) at human JAK3 was determined as 0.3 nM; against human BTK, 1.1 nM.

For `C=CC(=O)N1CC[C@H](F)[C@H](Oc2nc(Nc3cnn(CC(F)F)c3)nc3[nH]cc(F)c23)C1` (racemic) [Example 16, 1-(cis-3-((2-((1-(2,2-difluoroethyl)-1H-pyrazol-4-yl)amino)-5-fluoro-7H-pyrrolo[2,3-d]pyrimidin-4-yl)oxy)-4-fluoropiperidin-1-yl)prop-2-en-1-one], the values for the 50% inhibitory concentration (IC50) at human JAK3 and at human BTK were 0.6 nM and 5.9 nM, respectively.

On to `C=CC(=O)N1CC[C@H](F)[C@H](Oc2nc(Nc3cnn(CC(F)F)c3)nc3[nH]cc(C)c23)C1` (racemic) [Example 18, 1-(cis-3-((2-((1-(2,2-difluoroethyl)-1H-pyrazol-4-yl)amino)-5-methyl-7H-pyrrolo[2,3-d]pyrimidin-4-yl)oxy)-4-fluoropiperidin-1-yl)prop-2-en-1-one], for which the figures for the IC50 on human JAK3 and against human BTK were 0.7 nM and 7 nM, respectively.

`C=CC(=O)N1CC[C@@H](F)[C@H](Oc2nc(Nc3cnoc3)nc3[nH]ccc23)C1` (racemic) [Example 23, 1-(trans-4-fluoro-3-((2-(isoxazol-4-ylamino)-7H-pyrrolo[2,3-d]pyrimidin-4-yl)oxy)piperidin-1-yl)prop-2-en-1-one]: the IC50 on human JAK3 is 0.7 nM; against human BTK it was 11.6 nM.

With `C=CC(=O)N1CC[C@@H](F)[C@@H](Oc2nc(Nc3cnn(CC(F)F)c3)nc3[nH]ccc23)C1` [Example 6, 1-((3S,4R)-3-((2-((1-(2,2-difluoroethyl)-1H-pyrazol-4-yl)amino)-7H-pyrrolo[2,3-d]pyrimidin-4-yl)oxy)-4-fluoropiperidin-1-yl)prop-2-en-1-one], the half-inhibitory concentration (IC50) at human JAK3 was 0.2 nM; on human BTK (setting [1]), 1.5 nM.

`C=CC(=O)N1CC[C@@H](F)[C@@H](Oc2nc(Nc3cc(C)ns3)nc3[nH]ccc23)C1` [Example 7, 1-((3S,4R)-4-fluoro-3-((2-((3-methylisothiazol-5-yl)amino)-7H-pyrrolo[2,3-d]pyrimidin-4-yl)oxy)piperidin-1-yl)prop-2-en-1-one]: the figures for the 50% inhibitory concentration (IC50) at human JAK3 and at human BTK (setting [1]) were 0.2 nM and 1.3 nM, respectively.

Regarding `C=CC(=O)N1CC[C@@H](F)[C@@H](Oc2nc(Nc3cnn(C4CC4)c3)nc3[nH]ccc23)C1` [Example 8, 1-((3S,4R)-3-((2-((1-cyclopropyl-1H-pyrazol-4-yl)amino)-7H-pyrrolo[2,3-d]pyrimidin-4-yl)oxy)-4-fluoropiperidin-1-yl)prop-2-en-1-one], the IC50 came out at 0.2 nM at human JAK3 and 1.4 nM on human BTK (setting [1]).

As for `C=CC(=O)N1CC[C@@H](F)[C@@H](Oc2nc(Nc3cnn(CC)c3)nc3[nH]cc(C)c23)C1` [Example 19, 1-((3S,4R)-3-((2-((1-ethyl-1H-pyrazol-4-yl)amino)-5-methyl-7H-pyrrolo[2,3-d]pyrimidin-4-yl)oxy)-4-fluoropiperidin-1-yl)prop-2-en-1-one], the figures for the IC50 at human JAK3 and at human BTK (setting [1]) were 0.4 nM and 3.4 nM, respectively.

For the molecule `C=CC(=O)N1CC[C@@H](F)[C@@H](Oc2nc(Nc3cnn(CC(F)F)c3)nc3[nH]cc(C)c23)C1` [Example 20, 1-((3S,4R)-3-((2-((1-(2,2-difluoroethyl)-1H-pyrazol-4-yl)amino)-5-methyl-7H-pyrrolo[2,3-d]pyrimidin-4-yl)oxy)-4-fluoropiperidin-1-yl)prop-2-en-1-one], the half-inhibitory concentration (IC50) on human JAK3 turned out to be 0.4 nM; at human BTK (setting [1]), 4.5 nM.

Turning to `C=CC(=O)N1CC[C@@H](F)[C@@H](Oc2nc(Nc3cc(C)ns3)nc3[nH]cc(C)c23)C1` [Example 21, 1-((3S,4R)-4-fluoro-3-((5-methyl-2-((3-methylisothiazol-5-yl)amino)-7H-pyrrolo[2,3-d]pyrimidin-4-yl)oxy)piperidin-1-yl)prop-2-en-1-one], the 50% inhibitory concentration (IC50) came out at 0.2 nM at human JAK3 and 1.5 nM at human BTK (setting [1]).

For `C=CC(=O)N1CC[C@@H](F)[C@@H](Oc2nc(Nc3cnn(C4CC4)c3)nc3[nH]cc(C)c23)C1` [Example 22, 1-((3S,4R)-3-(2-((1-cyclopropyl-1H-pyrazol-4-yl)amino)-5-methyl-7H-pyrrolo[2,3-d]pyrimidin-4-yloxy)-4-fluoropiperidin-1-yl)prop-2-en-1-one], the half-maximal inhibitory concentration (IC50) at human JAK3 is 0.4 nM; on human BTK (setting [1]), 3.6 nM.

Consider `C=CC(=O)N1CC[C@@H](F)[C@H](Oc2nc(Nc3cnn(CC)c3)nc3[nH]ccc23)C1` [Example 24, 1-((3R,4R)-3-((2-((1-ethyl-1H-pyrazol-4-yl)amino)-7H-pyrrolo[2,3-d]pyrimidin-4-yl)oxy)-4-fluoropiperidin-1-yl)prop-2-en-1-one], for which the IC50 is 5.9 nM at human JAK3 and ~400 nM at human BTK (setting [1]).

In the case of `C=CC(=O)N1CC[C@@H](F)[C@@H](Oc2nc(Nc3cnn(CC)c3)nc3[nH]cc(Cl)c23)C1` [Example 26, 1-((3S,4R)-3-((5-chloro-2-((1-ethyl-1H-pyrazol-4-yl)amino)-7H-pyrrolo[2,3-d]pyrimidin-4-yl)oxy)-4-fluoropiperidin-1-yl)prop-2-en-1-one], the results for the IC50 on human JAK3 and at human BTK (setting [1]) were 0.2 nM and 2 nM, respectively.

`C=CC(=O)N1CC[C@H](F)[C@H](Oc2nc(Nc3cnn(C4CC4)c3)nc3[nH]ccc23)C1` [Example 35, 1-((3R,4S)-3-((2-((1-cyclopropyl-1H-pyrazol-4-yl)amino)-7H-pyrrolo[2,3-d]pyrimidin-4-yl)oxy)-4-fluoropiperidin-1-yl)prop-2-en-1-one]: the half-inhibitory concentration (IC50) at human JAK3 was 51.9 nM.

As for `C=CC(=O)N1CC[C@@H](F)[C@@H](Oc2nc(Nc3cnn(C4CCNCC4)c3)nc3[nH]ccc23)C1` [Example 36, 1-((3S,4R)-4-fluoro-3-((2-((1-(piperidin-4-yl)-1H-pyrazol-4-yl)amino)-7H-pyrrolo[2,3-d]pyrimidin-4-yl)oxy)piperidin-1-yl)prop-2-en-1-one], the IC50 on human JAK3 is 0.8 nM.
